From patent US11607421B2, “Ethanolamine-based lipid biosynthetic compounds, method of making and use thereof” (Metanoi Therapeutics, Inc., priority 2016, dated 2023) come the findings set out here.

For data set [1], the system named is pRb, Cdk4, Cdk2, p21, c-PARP, Bim, Bcl-2. The experiment in a line: Immunoblot of cell lysates. Type of data set: cell-based, human. The following applies: PC-3 cells, 2 mg/ml Etn for 48 h. How it is done: (§1) OCR was measured using an oxygen electrode.
Proteins were resolved by polyacrylamide gel electrophoresis and transferred onto polyvinylidene difluoride membranes (Millipore, Billerica, Mass., USA). The membranes were blocked in Tris-buffered saline containing 0.05% Tween-20 and 5% fat-free dry milk and incubated first with primary antibodies and then with horseradish peroxidase-conjugated secondary antibodies. Specific proteins were visualized with enhanced chemiluminescence detection reagent according to the manufacturer's instructions (Pierce Biotechnology, Rockford, Ill., USA).

The target in data set [2] is CYP2C19 (Homo sapiens, UniProt P33261). The experiment in a line: CYP inhibition in human liver microsomes.
Data set [3] relates to PC-3 cells. The experiment in a line: Intracellular levels of Etn and PhosE by LC-MS/MS. Type of data set: cell-based, human. The following applies: 1 mg/ml, 48 h, pH 7.4.
Data set [4] is described as follows: Acute toxicity, single oral limit dose. Conditions: single oral dose of 5 g/kg, five male and five female rats, monitored one week. The data set is classed as in vivo, Sprague-Dawley (SD) rats.
Data set [5] relates to PC-3-luc. Kind of data set: PC-3-luc prostate tumor xenograft.
In data set [6] the test system is PC-3 cells. Kind of data set: Annexin V binding assay (flow cytometry). The following applies: 2.0 mg/ml Etn. The data set is classed as cell-based, human. How it is done:
Annexin V binding assays were performed for control and 2.0 mg/ml Etn-treated cells along with counterstaining with 7-AAD to distinguish between dead and apoptotic cells. Annexin V positive cells were analyzed using flow cytometry. Representative scatter plots for control and Etn-treated cells stained with 7-AAD and annexin V are shown.
Annexin-V is known to bind to phosphatidylserine (PS) lipids which flip to the outer leaflet of plasma membrane in apoptotic cells (Vermes I. et al., J. Immunol. Methods, 1995, vol. 184, pp. 39-51). Annexin-V binding to PS is therefore a good indicator of cells undergoing apoptosis.
A general note: Flow cytometry measures light scatter and fluorescence of single cells or particles in a stream.

Data set [7] is described as follows: Pharmacokinetic studies, single oral and intravenous dose. The data set is classed as in vivo, BALB/c mice. The method, then: Samples (100 μl) were drawn at 0, 15, 30 and 60 min from SGF reaction-vials and at 0, 30, 60 and 120 min from SIF reaction-vials, quenched with acetonitrile, vortex-mixed, and centrifuged before supernatant analysis by LC-MS/MS analysis. […] For PK studies, a sparse sampling design with 3 mice per time point was used to collect blood samples at 5, 10, 15, 30 min and 1, 2, 3, 4, 5 and 6 h in K2EDTA-coated tubes. The pharmacokinetic parameters (AUClast, Cmax, CL and Vss) were calculated using non-compartmental analysis tool of Phoenix WinNonlin software (version 6.3).
Nine animals per group were used for PK studies. A sparse sampling design was used to collect blood samples from animals at 5 min, 10 min, 15 min, 30 min, 1, 2, 3, 4, 5, and 6 h in K2EDTA coated tubes. Plasma was collected from blood by centrifugation of samples at 8000 g for 10 min. Plasma samples were stored below −60° C. until further analysis.
PK parameters were calculated from the concentration-time data using the non-compartmental analysis tool of Phoenix WinNolin® software (version 6.3, Pharsight, St Louis, Mo.). The area under the concentration time curve (AUClast) was calculated by the linear trapezoidal rule. Following oral administration, peak concentration (Cmax) and time for the peak concentration (Tmax) were the observed values. The clearance (CL) and volume of distribution (Vss) were estimated following IV dose administration. The elimination rate constant value (k) was obtained by linear regression of the log-linear terminal phase of the concentration-time profile using at least three declining concentrations in terminal phase with a correlation coefficient of >0.8. The terminal half-life value (T1/2) was calculated using the equation ln 2/k. Oral bioavailability was calculated by taking the ratio of dose normalized AUClast following oral administration to IV administration.

Data set [8] has as its system DU145. The experiment in a line: MTT cell proliferation assay. Type of data set: cell-based, human. Conditions: 0.5 mg/ml Etn, 48 h; range given for PC-3, DU145 and C4-2B together. The method, then: (§2) After 48 h, drug containing medium was replaced by medium containing MTT (tetrazolium bromide) at a concentration of 0.5 mg/ml. The yellow tetrazolium salt is reduced to insoluble purple formazan by viable cells. After 4 h of incubation in dark, formazan crystals produced by viable cells were dissolved by 200 μl DMSO and the amount of formazan crystals formed was quantified by recording the absorbance at 570 nm using multi-well plate reader. […] After 10 days, colonies were fixed with 4% formaldehyde, stained with crystal violet and counted.
For orientation: Tetrazolium assays rely on reduction of a dye to a coloured formazan, in cell work by metabolically active cells.

Data set [9] has as its target CYP2D6 (Homo sapiens, UniProt P10635). Kind of data set: CYP inhibition in human liver microsomes. (In general: Liver microsomes are a subcellular fraction often used to study metabolism.)
Data set [10] concerns CFPAC-1. Kind of data set: MTT cell proliferation assay. The data set is classed as cell-based. The following applies: Homo sapiens, 48 h, pH 7.4. How it is done: as §2
For data set [11], the system named is MDA-MB-468. The experiment in a line: MTT cell proliferation assay. Conditions: Homo sapiens, 48 h, pH 7.4. The data set is classed as cell-based. The method, then: as §2
The subject of data set [12] is OVCAR-5. The experiment in a line: MTT cell proliferation assay. Type of data set: cell-based. Conditions: Homo sapiens, 48 h, pH 7.4. The method, then:
as §2

The subject of data set [13] is C4-2B. The experiment in a line: MTT cell proliferation assay. The data set is classed as cell-based. The following applies: 0.5 mg/ml Etn, 48 h; range given for PC-3, DU145 and C4-2B together. How it is done:
as §2

Data set [14] concerns p21, PARP1, Bcl-2, HIF1-α, Bax and Bid. The experiment in a line: Real time-PCR transcription levels. Type of data set: cell-based, human. The following applies: PC-3 cells, 2 mg/ml Etn for 48 h. The method, then:
as §1
To test this hypothesis, HIF1-α expression levels were analyzed in Etn-treated tumors and PC-3 cells. […] DMOG, an HIF1-α activator, was then employed to test whether Etn-mediated cell death in PC-3 cells was associated with HIF1-α stabilization (active HIF1-α signaling).
RNA was extracted from control and 2 mg/ml Etn-treated PC-3 cells using a RNeasy kit from Qiagen (Hilden, Germany), and quantified using NanoDrop. Reverse transcription of RNA was performed for the first strand cDNA synthesis using a first strand synthesis kit (GoScript™ Reverse Transcription System-A5000) from Promega (Madison, Wis.). The quality of synthesized cDNAs was checked on an agarose gel. RT-PCR of cDNA samples (in duplicates) was performed using iQ™ SYBR® Green Supermix from Bio-Rad (Hercules, Calif.) as per manufacturer's instructions. The RT-PCR primers were designed manually, checked with the primer3 software and ordered from Sigma (St Louis, Mo.).

Data set [15] relates to HCT116. The experiment in a line: HCT116 colon tumor xenograft. Conditions: 40 mg/kg Etn oral, 2 weeks.
The subject of data set [16] is PC-3-luc tumors. The experiment in a line: Glucose and glutamine contents in tumors (LC-MS/MS). The following applies: 40 mg/kg Etn-treated tumors vs untreated control.
Setting [17] is: 40 mg/kg Etn pH 5 (phosphoric acid), oral gavage, 4 weeks.

≈ marks a conversion by molar mass, not a printed value. A value given as a limit tells only on which side of the number the result lay.

Chain of CYP2D6 (P10635 whole entry): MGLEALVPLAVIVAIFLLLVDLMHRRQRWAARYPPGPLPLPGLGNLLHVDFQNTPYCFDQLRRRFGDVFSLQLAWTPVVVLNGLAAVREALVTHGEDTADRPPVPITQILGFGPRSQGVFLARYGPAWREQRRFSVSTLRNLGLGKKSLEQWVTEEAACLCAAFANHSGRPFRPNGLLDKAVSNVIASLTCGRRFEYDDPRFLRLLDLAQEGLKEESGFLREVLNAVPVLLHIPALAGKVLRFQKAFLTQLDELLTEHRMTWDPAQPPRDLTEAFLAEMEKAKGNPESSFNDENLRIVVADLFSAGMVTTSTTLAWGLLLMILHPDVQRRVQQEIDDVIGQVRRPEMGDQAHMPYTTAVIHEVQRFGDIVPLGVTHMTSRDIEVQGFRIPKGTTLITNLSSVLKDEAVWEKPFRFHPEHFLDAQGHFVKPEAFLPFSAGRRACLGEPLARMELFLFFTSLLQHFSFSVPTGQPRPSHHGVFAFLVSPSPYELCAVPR
Chain of CYP2C19 (P33261 whole entry): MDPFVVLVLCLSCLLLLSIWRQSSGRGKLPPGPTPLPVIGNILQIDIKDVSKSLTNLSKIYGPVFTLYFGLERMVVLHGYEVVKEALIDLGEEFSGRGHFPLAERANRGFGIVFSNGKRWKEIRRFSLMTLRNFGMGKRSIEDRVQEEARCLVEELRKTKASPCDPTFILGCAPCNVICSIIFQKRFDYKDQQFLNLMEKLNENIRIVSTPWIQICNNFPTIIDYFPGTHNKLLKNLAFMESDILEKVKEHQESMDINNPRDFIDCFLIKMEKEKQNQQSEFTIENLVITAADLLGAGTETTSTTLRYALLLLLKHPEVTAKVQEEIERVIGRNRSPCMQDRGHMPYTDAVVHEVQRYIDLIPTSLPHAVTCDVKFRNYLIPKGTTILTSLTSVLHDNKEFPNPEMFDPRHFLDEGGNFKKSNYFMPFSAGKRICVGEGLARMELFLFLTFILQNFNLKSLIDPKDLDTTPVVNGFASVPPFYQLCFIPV

Usually IC50 stands for the midpoint of a concentration-inhibition curve. A low value points to greater potency in that assay. Regarding `NCCO` [Etn, monoethanolamine], the “protein expression of apoptosis regulators” value in data set [1] was “an increase in protein expression of proapoptotic markers (c-PARP and Bim) and a decrease in antiapoptotic molecules (Bcl-2)”. The “protein expression of cell-cycle regulators” value in [1] was “downregulated protein expression of pRb, Cdk4, and Cdk2, and upregulated p21 expression”. Moreover, the IC50 is above 100 µM in data set [2]; above 100 µM in [9]; 1900 µg/mL (≈ 31.1 mM) in data set [10]; 550 µg/mL (≈ 9 mM) in data set [11]; 290 µg/mL (≈ 4.75 mM) in data set [12]. For the same compound, the “increase in intracellular PhosE levels compared to control cells” value in data set [3] is recorded as around 40 fold. The acute toxicity entry in data set [4] was “all rats were alive and did not display any sign of distress or toxicity”. For the same compound, the body weight result in [5] (40 mg/kg Etn oral, over the course of treatment, both models) is listed as “no apparent changes in body weight”; in data set [15] it was “did not change significantly”. Moreover, the “reduction in tumor volume vs untreated control tumors” value in data set [5] (setting [17]) is on record as around 67%. Moreover, in data set [5] (setting [17]), the “reduction in tumor weight vs untreated control tumors” value was around 55%. Further, the annexin-V positive cells in data set [6] is given as around 25%. In addition, in [7] (oral 40 mg/kg Etn), the “AUClast of Etn compared to PhosE” value was determined as 13 fold. The “Cmax of Etn compared to PhosE” value in data set [7] (oral 40 mg/kg Etn) worked out at 32 fold. The “time to reach peak plasma concentration” value in [7] (oral Etn administration, analyte Etn) came to 10 min. The reduction of survival in [8] and in data set [13] was 30-52% in each case. Moreover, the “reduction in HIF1-α transcript levels compared to control cells” value in [14] is on record as 50 fold. In addition, the “transcription levels of cell-cycle and apoptosis regulators” value in [14] is “upregulated p21, PARP1, Bax and Bid, and downregulated Bcl-2”. In addition, the “glucose and glutamine contents” value in data set [16] is given as “significantly reduced”.
